In patent publication US11440911B2, “Salts and crystals” (INTRA-CELLULAR THERAPIES, INC., priority 2017, dated 2022):

Tests used:
[1] = solubility of free base in organic solvents; type: physicochemical; details: variety of organic solvents
H1 histaminergic = H1 histaminergic (Homo sapiens, UniProt P35367); details: cited from earlier work
5-HT2C = molecular target: T1, 5-HT2C (Homo sapiens, UniProt P28335); details: cited from earlier work
T1 sequence (P28335 33-458): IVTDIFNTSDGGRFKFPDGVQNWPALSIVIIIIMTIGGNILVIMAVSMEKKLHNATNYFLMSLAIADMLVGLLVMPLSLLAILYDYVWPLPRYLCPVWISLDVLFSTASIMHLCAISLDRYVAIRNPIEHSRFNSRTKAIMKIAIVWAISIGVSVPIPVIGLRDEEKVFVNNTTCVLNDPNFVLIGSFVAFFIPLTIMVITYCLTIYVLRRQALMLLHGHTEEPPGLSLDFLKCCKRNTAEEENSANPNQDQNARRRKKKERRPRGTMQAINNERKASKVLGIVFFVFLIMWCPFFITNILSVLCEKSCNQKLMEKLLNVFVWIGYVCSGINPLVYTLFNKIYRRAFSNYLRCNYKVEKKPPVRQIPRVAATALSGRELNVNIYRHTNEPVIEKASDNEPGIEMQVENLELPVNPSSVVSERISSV

muscarinic = details: cited from earlier work
[2] = free base form; cited from earlier work
[3] = salt form of U.S. Pat. No. 7,183,282, precipitated from diethyl ether; cited from earlier work

Sequence of H1 histaminergic (P35367 whole entry): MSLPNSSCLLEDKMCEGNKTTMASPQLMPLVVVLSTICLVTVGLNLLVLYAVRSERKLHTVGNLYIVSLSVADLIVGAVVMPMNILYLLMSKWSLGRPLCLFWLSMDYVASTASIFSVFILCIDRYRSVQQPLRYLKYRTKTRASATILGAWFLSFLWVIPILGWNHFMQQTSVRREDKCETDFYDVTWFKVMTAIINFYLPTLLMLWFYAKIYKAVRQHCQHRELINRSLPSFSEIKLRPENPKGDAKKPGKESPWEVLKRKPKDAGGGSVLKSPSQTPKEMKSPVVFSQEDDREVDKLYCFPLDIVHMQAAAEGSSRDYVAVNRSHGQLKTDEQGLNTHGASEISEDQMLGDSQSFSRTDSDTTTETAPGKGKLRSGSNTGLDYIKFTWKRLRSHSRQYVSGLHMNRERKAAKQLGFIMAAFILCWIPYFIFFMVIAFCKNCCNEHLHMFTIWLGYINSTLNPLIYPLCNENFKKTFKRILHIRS

Row | solubility in organic solvents [1] | SMILES | binding to receptor (H1 histaminergic) | binding to receptor (5-HT2C) | binding to receptor (muscarinic) | aqueous solubility [2] | hygroscopicity [3] | stability [3]
1 | good solubility | CN1CCN2c3c(cccc31)[C@@H]1CN(CCCC(=O)c3ccc(F)cc3)CC[C@@H]12 [ITI-007, 1-(4-fluoro-phenyl)-4-((6bR,10aS)-3-methyl-2,3,6b,9,10,10a-hexahydro-1H,7H-pyrido[3′,4′:4,5]pyrrolo[1,2,3-de]quinoxalin-8-yl)-butan-1-one] | negligible binding | negligible binding | negligible binding | poor aqueous solubility |  | 
2 |  | CN1CCN2c3c(cccc31)C1CN(CCCC(=O)c3ccc(F)cc3)CCC12.Cl (stereo not shown) [hydrochloride salt form of ITI-007] |  |  |  |  | hygroscopic | poor stability
